This is an account of results in patent US5847125A, “Amino acid derivatives with anticholecystokinin activity” (James Black Foundation Limited, priority 1992, dated 1998).

In one test the target is T1, CCKB receptor (Mus musculus, UniProt P56481).
T1 construct: CCKB receptor in mouse cortical membranes; from tissue; host or cells: mouse cerebral cortex membranes (male mice, Charles River)
T1 sequence (P56481 1-453): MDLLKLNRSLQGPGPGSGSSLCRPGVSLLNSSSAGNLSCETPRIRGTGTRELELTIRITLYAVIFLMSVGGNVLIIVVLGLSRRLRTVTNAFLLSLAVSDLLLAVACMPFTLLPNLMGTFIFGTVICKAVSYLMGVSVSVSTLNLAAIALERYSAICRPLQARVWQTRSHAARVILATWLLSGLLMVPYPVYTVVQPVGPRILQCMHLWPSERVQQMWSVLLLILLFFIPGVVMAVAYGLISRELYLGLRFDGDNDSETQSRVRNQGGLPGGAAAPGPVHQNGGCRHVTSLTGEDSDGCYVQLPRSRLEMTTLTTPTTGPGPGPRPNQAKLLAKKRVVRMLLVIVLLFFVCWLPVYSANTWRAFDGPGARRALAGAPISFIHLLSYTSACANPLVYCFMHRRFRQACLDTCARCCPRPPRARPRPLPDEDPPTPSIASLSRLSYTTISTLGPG
In words: CCKB radioligand binding assay in mouse cortical membranes, [125I] CCK-8S (selectivity testing). Further details: species or system male mice. Conditions: [125I] CCK-8S 200 pM, 150 min at 21°; for Ki: pH 7.2, non-specific binding L-365,260, read-out: pKi CCKB (converted). On the procedure: The compounds were assayed for selectivity with respect to the CCKB receptor in mouse cortical membranes by means of a radioligand binding assay. The procedure was as follows:
The whole brains from male mice (CDI 22-25 g; Charles River) were removed and placed in ice-cold buffer (pH 7.2 at 21°±3° C.) of the following composition (mM); 10 HEPES, 130 NaCl, 4.7 KCl, 5 MgCl2, 1 EDTA and containing 0.25 g. 1^-1 bacitracin.
The cortex was dissected, weighed and homogenised in 40 ml ice-cold buffer using a Teflon-in-glass homogeniser. The homogenate was centrifuged at 39,800 g for 20 min at 4° C., the supernatant discarded and the pellet resuspended by homogenisation in fresh buffer. The homogenate was recentrifuged (39,800 g; 20 min at 4° C.) and the final pellet was resuspended in HEPES buffer to give a tissue concentration of 2 mg ml^-1 (original wet weight).
The membranes (400 μl) were incubated for 150 min at 21°±3° C. in a final volume of 0.5 ml with HEPES buffer containing [^125 I] CCK-8S (0.05 ml; 200 pM NEN 2200Ci.mmol^-1) and competing compound. Total and non-specific binding of [^125 I] CCK-8S were defined using 0.05 ml of buffer and 0.05 ml of 10 mM L-365,260, respectively. The assay was terminated by rapid filtration through pre-soaked Whatman GF/B filters using a Brandell Cell harvester. The filters were washed (3×3 ml) with ice-cold 50 mM Tris-HCl (pH 7.4 at 4° C.) and bound radioactivity determined by counting (1 min.) in a gamma counter.

In test [1] the target is T2, CCK (gallbladder) receptor (Cavia porcellus, UniProt Q63931).
T2 construct: Isolated, strip preparations were prepared from gall-bladders removed from male Dunkin-Hartley guinea-pigs; from tissue; host or cells: guinea-pig gall-bladder strips
T2 sequence (Q63931 1-430): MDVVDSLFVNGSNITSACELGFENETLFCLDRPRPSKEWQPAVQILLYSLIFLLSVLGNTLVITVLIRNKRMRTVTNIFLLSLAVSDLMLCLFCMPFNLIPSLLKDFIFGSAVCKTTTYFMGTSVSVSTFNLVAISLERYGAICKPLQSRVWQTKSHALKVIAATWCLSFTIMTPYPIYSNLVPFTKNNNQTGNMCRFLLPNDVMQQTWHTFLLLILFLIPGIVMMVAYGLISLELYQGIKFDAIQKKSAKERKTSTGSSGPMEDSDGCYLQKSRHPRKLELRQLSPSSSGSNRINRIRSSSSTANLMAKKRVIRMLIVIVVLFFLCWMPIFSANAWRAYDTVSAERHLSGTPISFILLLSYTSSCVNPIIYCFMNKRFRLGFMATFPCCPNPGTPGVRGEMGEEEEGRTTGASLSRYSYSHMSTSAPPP
As to the kind of experiment: CCK-receptor bioassay, isolated guinea-pig gall-bladder strip preparations, CCK-8 as agonist. The note with it: negative log10 of equilibrium dissociation constant, guinea-pig gall-bladder strips, CCK-8 agonist, test compound incubated for 60 minutes, 37° C; for Kb: read-out: pKB versus CCK (gallbladder) (converted). It is filed as cell-based, male Dunkin-Hartley guinea-pigs. As to the method:
The compounds of the examples were assayed using a CCK-receptor bioassay as follows:
Isolated, strip preparations were prepared from gall-bladders removed from male Dunkin-Hartley guinea-pigs (250-500 g body weight) according to the method of La Morte, W. W., et al., J.P.E.T., 217, (3), 638-644 (1981).
The complete gall-bladder is removed and opened along the longitudinal axis. Strips measuring 3 mm in the longitudinal axis and 1 mm in the transverse axis are cut and then tied with cotton to stainless steel wires. The preparation is connected to a GRASS FTO3 isometric transducer under an initial loading tension of 1 g and is immersed in 20 mls of Krebs solution maintained at 37° C. and gassed with 95% O2 /5% CO2. The Krebs solution is as detailed above in connection with the fundus assay, except that the Ca^2+ concentration is decreased to 0.5 mM. After 30 mins the preparation is washed. Drug addition begins after an initial 90 min stabilisation period. Responses are measured as changes in tension from that immediately prior to any drug addition. Single cumulative agonist concentration-effect curves, using CCK-8 as agonist, are obtained on each preparation in the absence and presence of test compound which has been incubated for 60 minutes. The antagonist activity of the test compound is estimated and expressed as the negative logarithm (base 10) of the equilibrium dissociation constants (pKB) using the modifications of standard competitive analysis described by Black et al., Br. J. Pharmacol.,86,571-579, (1985) and Shankley et al., Br. J. Pharmacol.,94,264-274 (1988).

A further test concerns the target T3, CCKA (Cavia porcellus, UniProt Q63931).
T3 construct: The pancreatata were removed from male guinea-pigs (200-300 g; Dunkin Hartley); from tissue; host or cells: guinea-pig pancreas membranes
T3 sequence (Q63931 1-430): T2 sequence (Q63931 1-430)
In words: CCKA binding assay, pancreas membranes, [125I]-CCK8(S). Further details: species or system male guinea-pigs (Dunkin Hartley). On the procedure:
The compounds of the examples were also tested in a CCKA binding assay as follows:
The pancreatata were removed from male guinea-pigs (200-300 g; Dunkin Hartley) and placed in ice-cold HEPES buffer (pH 7.2@21°±3°). The pancreatata were homogenised in 40 ml ice-cold HEPES buffer using a polytron (Brinkmann, PT10, setting 10) 4×1 second. The homogenate was centrifuged at 39,800 g for 15 min at 4°. The supernatant was discarded and the pellet re-suspended using a Teflon-in-glass homogeniser in 20 volumes of fresh buffer and re-centrifuged as above. The final pellet was re-suspended using a Teflon-in-glass homogeniser to a tissue concentration of 1 mg ml^31 1 (original wet weight), and filtered through 500 μm pore-size Nytex mesh.
The membranes (400 μl; containing 0.375 μM PD134,308) are incubated for 150 minutes at 21°±3° in a final volume of 0.5 ml with HEPES buffer containing [^125 I]--CCK8 (S) (50 μl; 200 pM) and competing compound. Total and non-specific binding of [^125 I]--CCK8 (S) are defined using 50 μl of buffer and 50 μl of 100 nM L-364,718 respectively. The assay is terminated by rapid filtration through pre-soaked Whatman GF/B filters using a Brandell Cell Harvester. The filters were washed (3×3 ml) with ice-cold 50 mM Tris HCl (pH 7.4 at 4°) and bound radioactivity is determined by counting (1 min) in a gamma counter.

The mark [2] stands for this setting: guinea-pig pancreas membranes, [125I]-CCK8(S) 200 pM, 0.375 μM PD134,308, 150 minutes at 21°, non-specific binding 100 nM L-364,718, read-out: pKi CCKλ (converted).

Read-outs that look alike come from different tables or passages of the source.

In the case of `CCCCCN(CCCCC)C(=O)[C@H](CC(=O)O)NS(=O)(=O)c1ccc2ccccc2c1` [Example 1, 2-Naphthalenesulphonyl-L-aspartyl dipentylamide], the figures for the Ki at CCKB receptor and on CCKA (setting [2]) were 7940 nM and 251 nM, respectively. Moreover, the Kb in test [1] is 200 nM.
The matching figures for `CCCCCN(CCCCC)C(=O)[C@@H](CCC(=O)O)NS(=O)(=O)c1ccc2ccccc2c1` [Example 2, 2-Naphthalenesulphonyl D-glutamyl dipentylamide]: 3980 nM, 158 nM and 1000 nM.
Regarding `CCCCN(CCCC)C(=O)[C@H](CC(=O)O)NS(=O)(=O)c1ccc2ccccc2c1` [Example 3, 2-Naphthalenesulphonyl-L-aspartyl dibutylamide], the Ki at CCKB receptor was 25100 nM; at CCKA (setting [2]), 1000 nM. For the same molecule, the Kb in test [1] is 631 nM.
The matching figures for `CCCCCCN(CCCCCC)C(=O)[C@H](CC(=O)O)NS(=O)(=O)c1ccc2ccccc2c1` [Example 4, 2-Naphthalenesulphonyl-L-aspartyl dihexylamide]: 5010 nM, 126 nM and 158 nM.
The matching figures for `CCCCCNC(=O)[C@H](CC(=O)O)NS(=O)(=O)c1ccc2ccccc2c1` [Example 5, 2-Naphthalenesulphonyl-L-aspartyl pentylamide]: 100000 nM, 1000 nM and 398 nM.
The matching figures for `CC(C)(C)CCNC(=O)[C@H](CC(=O)O)NS(=O)(=O)c1ccc2ccccc2c1` [Example 6, 2-Naphthalenesulphonyl-L-aspartyl (3,3-dimethyl)-butylamide]: 25100 nM, 501 nM and 501 nM.
As for `CCCCCCN(C)C(=O)[C@H](CC(=O)O)NS(=O)(=O)c1ccc2ccccc2c1` [Example 7, 2-Naphthalenesulphonyl-L-aspartyl N-(methyl)hexylamide], the Ki was 50100 nM at CCKB receptor and 3160 nM at CCKA (setting [2]). In addition, the Kb in test [1] is 316 nM.
As to `CCCCCN(CCCOC)C(=O)[C@H](CC(=O)O)NS(=O)(=O)c1ccc2ccccc2c1` [Example 8, 2-Naphthalenesulphonyl-L-aspartyl N-(3-methoxypropyl)pentylamide], at CCKB receptor (pH 7.2, non-specific binding L-365,260), the “pKi CCKB” value is given as 4.4. Also, the “pKB versus CCK (gallbladder)” value in test [1] is 6.7. On CCKA (guinea-pig pancreas membranes, [125I]-CCK8(S) 200 pM, 0.375 μM PD134,308, 150 minutes at 21°, non-specific binding 100 nM L-364,718), the “pKi CCKλ” value amounted to 5.6.
With `CCCCCC(CCCCC)NC(=O)[C@H](CC(=O)O)NS(=O)(=O)c1ccc2ccccc2c1` [Example 9, 2-Naphthalenesulphonyl-L-aspartyl (1-pentyl)hexylamide], the figures for the Ki on CCKB receptor and on CCKA (setting [2]) were 3980 nM and 398 nM, respectively. In addition, the Kb in test [1] was 200 nM.
The matching figures for `O=C(O)C[C@H](NS(=O)(=O)c1ccc2ccccc2c1)C(=O)NCC12CC3CC(CC(C3)C1)C2` [Example 10, 2-Naphthalenesulphonyl-L-aspartyl 1-adamantylmethylamide]: 6310 nM, 50.1 nM and 63.1 nM.
The like results for `O=C(O)C[C@H](NS(=O)(=O)c1ccc2ccccc2c1)C(=O)NCCC1CCCCC1` [Example 11, 2-Naphthalenesulphonyl-L-aspartyl 2-cyclohexylethylamide] were, in that order, 25100 nM, 158 nM and 79.4 nM.
The like results for `O=C(O)C[C@H](NS(=O)(=O)c1ccc2ccccc2c1)C(=O)NCCC12CC3CC(CC(C3)C1)C2` [Example 12, 2-Naphthalenesulphonyl-L-aspartyl 2-(1-adamantyl) ethylamide] were, in that order, 7940 nM, 126 nM and 50.1 nM.
For the molecule `O=C(O)C[C@H](NS(=O)(=O)c1ccc2ccccc2c1)C(=O)N1CCC2(CC1)OCCO2` [Example 14, 2-Naphthalenesulphonyl-L-aspartyl 1,4-dioxa-8-azaspiro-[5.4]decylamide], the Ki at CCKA is 10000 nM.
`O=C(O)C[C@H](NS(=O)(=O)c1ccc2ccccc2c1)C(=O)N1CC2CCC(CC2)C1` [Example 15, 2-Naphthalenesulphonyl-L-aspartyl 3-azabicyclo-[3.2.2]nonylamide]: the Ki at CCKB receptor was 25100 nM; at CCKA (setting [2]) it was 10000 nM.
The like results for `CCCCC(CC)CN(CC(CC)CCCC)C(=O)[C@H](CC(=O)O)NS(=O)(=O)c1ccc2ccccc2c1` (stereo partly drawn) [Example 17, 2-Naphthalenesulphonyl-L-aspartyl di(2-ethyl)hexylamide] were, in that order, 2000 nM and 1260 nM.
Take `CCCCCOC(=O)[C@H](CC(=O)O)NS(=O)(=O)c1ccc2ccccc2c1` [Example 20, 2-Naphthalenesulphonyl-L-aspartyl pentyl ester]: the Ki at CCKB receptor was 20000 nM; at CCKA (setting [2]), 2000 nM.
